Experimental data reported in US20200255844A1, “MULTIPLEXED RECEPTOR-LIGAND INTERACTION SCREENS” (THE REGENTS OF THE UNIVERSITY OF CALIFORNIA, priority 2017, published 2020).

What was measured:
Assay type in all cases: cell-based, mouse
MOR170-1 = test: High-throughput multiplexed odorant screening (Smell-seq), 96-well, barcode RNA-seq readout; settings: OR MOR170-1; pair called as hit, FDR=1%
Procedure: (§1) 10. High-Throughput Odorant Screening
(§2) The OR library cell line was thawed from a liquid nitrogen frozen stock into a T-225 flask (Corning) three days before seeding into a 96-well plate for screening. The library was seeded at 6,666 cells per well in 100 ul of DMEM. 24 hours later a working concentration of 1 ug/ml of doxycycline in DMEM was added to the wells. 24 hours after induction, the media was removed from each plate and replaced with 25 ul of odorant diluted in OptiMEM. Each odor was added at three different concentrations (10 uM, 100 uM, 1 mM) in triplicate with the same amount of final DMSO (1%). Each plate contained two control odorants at a three concentration (10 uM, 100 uM, 1 mM) in triplicate and three wells containing 1% DMSO dissolved in media. The library was incubated with odorants for three hours in a cell culture incubator with the lids removed.
(§3) After odor incubation, media was pipetted out of the plates and cells were lysed by adding 25 uL of ice-cold Cells-to-cDNA II Lysis Buffer (Thermo Fisher) and pipetting up and down to homogenize and lyse cells. The lysate was then heated to 75° C. for 15 minutes and flash frozen with liquid nitrogen and kept at −80 C until further processing. Then 0.5 uL DNase I (New England Biolabs) was added to lysate, and incubated at 37° C. for 15 minutes. To anneal the RT primer, 5 ul of lysate from each well was combined with 2.5 ul of 10 mM dNTPs (New England Biosciences), 1 ul of 2 uM gene specific RT primer (OL003), and 1.5 ul of H2O. The reaction was heated to 65° C. for 5 min and cooled back down to 0° C. After annealing, 1 ul of M-MuLV Reverse Transcriptase (Enzymatics), 1 ul of buffer, and 0.25 ul of RNase Inhibitor (Enzymatics) were added to each reaction. Reactions were incubated at 42° C. for 60 min and the RT enzyme was heat inactivated at 85° C. for 10 min.
(§4) For each batch, qPCR was performed on a few wells (OL005F and OL013) with SYBR FAST qPCR Mastermix to determine the number of cycles necessary for PCR based library preparation. The reaction and cycling conditions are optimized as follows: 95° C. for 3 minutes, 40 cycles of 95° C. for 3 seconds and 60° C. for 20 seconds. After qPCR, 5 ul of each RT reaction was combined with 0.4 ul of 10 uM primers containing sequencing adaptors (OL005F and OL013), 10 ul of NEB-Next Q5 Mastermix (New England Biosciences) and 4.2 ul H2O, the PCR was carried out according to the manufacturer's protocol. The forward primer contains the P7 adaptor sequence and an index identifying the well in the assay and the reverse primer contains the P5 adaptor sequence and an index identifying the plate in the assay. PCR products were pooled together by plate and purified with the DNA Clean and Concentrator Kit. Library concentrations were quantified using a Tape Station 2200 and a Qubit (Thermo Fisher). The libraries were sequenced with two index reads and a single end 75-bp read on a NextSeq 500 in high-output mode (Illumina).
(§5) 11. Analysis of Next-Generation Sequencing Data
(§6) Samples were identified via indexing by their PCR indexes adapters unique for each well (5′ end) and unique for each plate (3′ end). The well barcodes followed the 7 bp indexing scheme in (Illumina Sequencing Library Preparation for Highly Multiplexed Target Capture and Sequencing Matthias Meyer, Martin Kircher, Cold Spring Harb Protoc; 2010; doi:10.1101/pdb.prot5448). The plate indexing scheme followed the Illumina indexing scheme. Sequencing data was demultiplexed and 15 bp barcode sequences were counted with only exact matches by custom python and bash scripts.
(§7) 12. Statistical Methods for Calling Hits
(§8) Count data was then analyzed using the differential expression package EdgeR. To filter out ORs with low representation, we set a cutoff that an OR had to contain at least 0.5% of the reads from more than 399 of the 1954 test samples. This filtered out 3 of 42 ORs which were underrepresented in the cell library (MOR172-1, MOR176-1 and MOR181-1). […]

MOR139-1 = test: High-throughput multiplexed odorant screening (Smell-seq), barcode RNA-seq readout; settings: OR MOR139-1; pair called as hit, FDR=1%
Text: (§9) We subsequently screened 182 odorants at three concentrations in triplicate against the OR cell library, the equivalent of ˜85,000 individual luciferase assays including controls (FIG. 10A, Table 2). Each 96-well plate in the assay contained positive control odorants and solvent DMSO wells for normalization (FIG. 16). We used the EdgeR software package to determine differentially responsive ORs based on a negative binomial model of barcode counts. We found 114 OR-odorant interactions (out of 7,200 possible), 81 of which are novel, and 24 interactions with 15 orphan receptors (FIG. 10C, FIG. 17 and Supplementary Table 4) (FDR=1%; Benjamini-Hochberg correction). Overall 28 of 39 receptors were activated by at least one odorant, and 68 of 182 odorants activated at least one OR (Table 4). We chose 37 interactions of at least 1.2 fold induction to test individually with a previously developed transient OR assay that has several important differences (FIG. 18). Of the 28 interactions called as hits at an FDR of 1%, 21 of them replicated in this orthogonal system (FIG. 17). […] Conversely, we also detect 14 interactions that this previous study tested, but called negative.

MOR13-1 = test: High-throughput multiplexed odorant screening (Smell-seq), 96-well, barcode RNA-seq readout; settings: OR MOR13-1; pair called as hit, FDR=1%
Text: We find that chemicals with similar features activate similar sets of ORs, including those receptors we deorphanize in this study. For example, the previously orphan MOR13-1 is activated by four chemicals with polar groups attached, in three cases, to stiff non-rotatable scaffolds. Another example is, MOR19-1, which has clear affinity for the salicylate functional group. To better understand how chemical similarity relates to receptor activation without relying on incomplete and sometimes arbitrary chemical descriptors, we used a previously validated computational autoencoder to represent each chemical in a ˜292 dimensional latent space, allowing nearly lossless compression of chemical structure (Data not shown). We find chemicals that activate the same OR tend to cluster distinctly (FIG. 10D, FIG. 20). […] Many, but not all of the receptors. […] Understanding the space of chemicals that activates each OR establishes the groundwork for prediction of novel odorant-OR interactions.
as §1, §2
After odor incubation, media was pipetted out of the plates and cells were lysed by adding 25 uL of ice-cold Cells-to-cDNA II Lysis Buffer (Thermo Fisher) and pipetting up and down to homogenize and lyse cells. The lysate was then heated to 75° C. for 15 minutes and flash frozen with liquid nitrogen and kept at −80 C until further processing. Then 0.5 uL DNase I (New England Biolabs) was added to lysate, and incubated at 37° C. for 15 minutes. […]
For each batch, qPCR was performed on a few wells (OL005F and OL013) with SYBR FAST qPCR Mastermix to determine the number of cycles necessary for PCR based library preparation. […] Library concentrations were quantified using a Tape Station 2200 and a Qubit (Thermo Fisher). The libraries were sequenced with two index reads and a single end 75-bp read on a NextSeq 500 in high-output mode (Illumina). […]

MOR30-1 = test: High-throughput multiplexed odorant screening (Smell-seq), barcode RNA-seq readout; settings: OR MOR30-1; pair called as hit, FDR=1%
Text: as §9

MOR25-1 = test: as above; settings: OR MOR25-1; pair called as hit, FDR=1%
Text: as §9

MOR5-1 = test: High-throughput multiplexed odorant screening (Smell-seq), 96-well, barcode RNA-seq readout; settings: OR MOR5-1; pair called as hit, FDR=1%
Procedure: as §1, §2, §3, §4, §5, §6, §7, §8

MOR189-1 = test: High-throughput multiplexed odorant screening (Smell-seq), barcode RNA-seq readout; settings: OR MOR189-1; pair called as hit, FDR=1%
Text: as §9

MOR23-1 = test: as above; settings: OR MOR23-1; pair called as hit, FDR=1%
Text: as §9

Olfr62 = test: as above; settings: OR Olfr62; pair called as hit, FDR=1%
Text: as §9

In the case of CC(=O)OCc1ccccc1 [Benzyl acetate], the “Minimum Activating Concentration” value (MOR170-1) is reported as 1000 µM.
For CCCC=O [Butanal], the “Minimum Activating Concentration” value (MOR139-1) was 1000 µM.
With OCC=Cc1ccccc1 [Cinnamyl alcohol] the “Minimum Activating Concentration” value (MOR170-1) was 1000 µM.
For O=C(O)C1CCC1 [Cyclobutanecarboxylic acid], the “Minimum Activating Concentration” value (MOR13-1) was 1000 µM.
With CCCCCCCCCC=O [Decanal] the “Minimum Activating Concentration” value (MOR30-1) was 100 µM and the “Minimum Activating Concentration” value (MOR25-1) was 1000 µM.
With CCCCCCCCCC(=O)O [Decanoic-Acid] the “Minimum Activating Concentration” value (MOR5-1) was 1000 µM, the “Minimum Activating Concentration” value (MOR30-1) was 10 µM and the “Minimum Activating Concentration” value (MOR25-1) was 100 µM.
With CCCCCC1=C(C)CCC1=O [Dihydrojasmone] the “Minimum Activating Concentration” value (MOR139-1) was 1000 µM.
For CNc1ccccc1C(=O)OC [Dimethyl anthranilate], the “Minimum Activating Concentration” value (MOR170-1) was 10 µM and the “Minimum Activating Concentration” value (MOR139-1) was 1000 µM.
C=CCc1ccc(OC)c(OC)c1 [Eugenol methyl ether] was tested, and the “Minimum Activating Concentration” value (MOR170-1) was 10 µM, the “Minimum Activating Concentration” value (MOR189-1) was 1000 µM and the “Minimum Activating Concentration” value (MOR139-1) was 1000 µM.
With C=CCc1ccc(O)c(OC)c1 [Eugenol] the “Minimum Activating Concentration” value (MOR139-1) was 1000 µM.
In the case of CCCCCCC=O [Heptanal], the “Minimum Activating Concentration” value (MOR23-1) is reported as 1000 µM.
In the case of CC(C)=CCC/C(C)=C\COC(=O)C(C)C [Neryl isobutyrate], the “Minimum Activating Concentration” value (MOR139-1) is reported as 1000 µM.
With CCCCCCCCC=O [Nonanal] the “Minimum Activating Concentration” value (MOR5-1) was 1000 µM, the “Minimum Activating Concentration” value (MOR30-1) was 1000 µM and the “Minimum Activating Concentration” value (MOR23-1) was 1000 µM.
With CCCCCCCCC(=O)O [Nonanoic Acid] the “Minimum Activating Concentration” value (MOR5-1) was 100 µM, the “Minimum Activating Concentration” value (MOR30-1) was 100 µM and the “Minimum Activating Concentration” value (MOR23-1) was 1000 µM. The “Minimum Activating Concentration” value (MOR25-1) was 1000 µM.
With CCCCCCCC=O [Octanal] the “Minimum Activating Concentration” value (MOR5-1) was 1000 µM and the “Minimum Activating Concentration” value (MOR23-1) was 100 µM.
With O=Cc1ccc2c(c1)OCO2 [Piperonal] the “Minimum Activating Concentration” value (MOR170-1) was 1000 µM and the “Minimum Activating Concentration” value (Olfr62) was 1000 µM.
In the case of COc1cc(C=O)ccc1O [Vanillin], the “Minimum Activating Concentration” value (MOR170-1) is reported as 1000 µM.
With C/C=C/C(=O)C1=C(C)CCCC1(C)C [beta-Damascone] the “Minimum Activating Concentration” value (MOR189-1) was 1000 µM.
For CC(=O)/C=C/C1=C(C)CCCC1(C)C [beta-ionone], the “Minimum Activating Concentration” value (MOR189-1) was 1000 µM and the “Minimum Activating Concentration” value (MOR139-1) was 1000 µM.
With CCCCC/C=C\CCC=O [cis-4-Decenal] the “Minimum Activating Concentration” value (MOR5-1) was 1000 µM.
With CC/C=C\CCCCC=O [cis-6-Nonenal] the “Minimum Activating Concentration” value (MOR5-1) was 1000 µM.
With C/C=C(\C)C=O [trans-2-Methyl-2-butenal (2MB)] the “Minimum Activating Concentration” value (MOR13-1) was 1000 µM.
